Reference: US10183950B2, “Thienopyrimidine inhibitors of atypical protein kinase C” (Cancer Research Technology Limited, priority 2011, dated 2019)
Like-named read-outs stand apart in the source and are kept apart here.

Target: T1, full-length human PKCι (Homo sapiens, UniProt P41743)
T1 construct: Recombinant, full-length human PKCι expressed in Sf21 insect cells is also commercially available; purchased; host or cells: Sf21 insect cells
T1 sequence (P41743 1-596): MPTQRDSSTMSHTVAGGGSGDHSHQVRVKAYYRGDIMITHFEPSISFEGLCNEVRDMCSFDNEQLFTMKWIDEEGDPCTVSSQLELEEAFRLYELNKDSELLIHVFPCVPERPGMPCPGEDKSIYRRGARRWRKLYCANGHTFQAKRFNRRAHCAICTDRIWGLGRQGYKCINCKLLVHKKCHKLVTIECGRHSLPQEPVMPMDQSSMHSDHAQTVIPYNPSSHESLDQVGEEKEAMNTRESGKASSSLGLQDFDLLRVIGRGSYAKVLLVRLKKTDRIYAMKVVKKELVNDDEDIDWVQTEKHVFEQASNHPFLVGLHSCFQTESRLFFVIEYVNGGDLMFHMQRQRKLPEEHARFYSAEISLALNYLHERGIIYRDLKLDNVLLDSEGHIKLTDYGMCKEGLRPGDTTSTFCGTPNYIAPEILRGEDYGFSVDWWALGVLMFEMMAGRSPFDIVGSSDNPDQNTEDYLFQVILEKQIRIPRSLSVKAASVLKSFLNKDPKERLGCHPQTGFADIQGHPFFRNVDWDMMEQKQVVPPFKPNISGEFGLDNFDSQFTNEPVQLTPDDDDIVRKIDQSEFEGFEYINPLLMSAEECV
Assay: PKCι IC50 IMAP fluorescence polarisation assay, full-length enzyme
Assay type: biochemical
Settings: full length PKCi at 15 μM ATP

[1] = read-out: IC50 in IMAP assay against full length PKCi
[2] = read-out: IC50 in IMAP assay against full length PKCi (Activity)

In the case of COc1cccc(OC)c1-c1c(C)sc2c(NC[C@@H](N)Cc3ccccc3)nc(-c3ccncc3)nc12 [compound 454, (S)-N*1*-[7-(2,6-Dimethoxy-phenyl)-6-methyl-2-pyridin-4-yl-thieno[3,2-d]pyrimidin-4-yl]-3-phenyl-propane-1,2-diamine], the IC50 [1] is reported as 10000 to 40000 nM.

Work on N[C@H](CNc1nc(-c2ccncc2)nc2c(-c3cn[nH]c3)csc12)Cc1ccccc1 [compound 393, (S)-3-Phenyl-N*1*-[7-(1H-pyrazol-4-yl)-2-pyridin-4-yl-thieno[3,2-d]pyrimidin-4-yl]-propane-1,2-diamine] yielded an IC50 [1] of 100 to 1000 nM.

With CC1(C)CCc2c(sc3nc(-c4ccncc4)nc(NC[C@@H](N)Cc4ccccc4)c23)C1 [compound 77, (S)-N*1*-(7,7-Dimethyl-2-pyridin-4-yl-5,6,7,8-tetrahydro-benzo[4,5]thieno[2,3-d]pyrimidin-4-yl)-3-phenyl-propane-1,2-diamine] the IC50 [2] was 10000 to 40000 nM.

Work on C#Cc1csc2c(N[C@@H]3CCNC3)nc(-c3ccncc3)nc12 [compound 559, (7-Ethynyl-2-pyridin-4-yl-thieno[3,2-d]pyrimidin-4-yl)-(R)-pyrrolidin-3-yl-amine] yielded an IC50 [1] of 100 to 1000 nM.

N[C@@H](CNc1nc(-c2ccncc2)nc2c(-c3ccc(Br)cc3)csc12)Cc1ccccc1 [compound 327, (R)-N*1*-[7-(4-Bromo-phenyl)-2-pyridin-4-yl-thieno[3,2-d]pyrimidin-4-yl]-3-phenyl-propane-1,2-diamine] showed an IC50 [1] of 1000 to 10000 nM.

Molecule N[C@H](CNc1nc(-c2ccncc2)nc2c(-c3ccc(F)cc3)csc12)Cc1ccccc1 [compound 409, (S)-N*1*-[7-(4-Fluoro-phenyl)-2-pyridin-4-yl-thieno[3,2-d]pyrimidin-4-yl]-3-phenyl-propane-1,2-diamine] has an IC50 [1] of 100 to 1000 nM.

For N[C@H](CNc1nc(-c2ccncc2F)nc2c(-c3ccc[nH]3)csc12)Cc1ccccc1 [compound 419, (S)-N*1*-[2-(3-Fluoro-pyridin-4-yl)-7-(1H-pyrrol-2-yl)-thieno[3,2-d]pyrimidin-4-yl]-3-phenyl-propane-1,2-diamine], the IC50 [1] was 100 to 1000 nM.

For CC(C)C(=O)N1CCc2c(sc3nc(-c4ccncc4)nc(NCCN)c23)C1 [compound 107, 1-[4-(2-Amino-ethylamino)-2-pyridin-4-yl-5,8-dihydro-6H-pyrido[4′,3′:4,5]thieno[2,3-d]pyrimidin-7-yl]-2-methyl-propan-1-one], the IC50 [2] was 10000 to 40000 nM.

N[C@H](CNc1nc(-c2ccncc2)nc2c(-c3ccn[nH]3)csc12)Cc1ccccc1 [compound 390, (S)-3-Phenyl-N*1*-[7-(2H-pyrazol-3-yl)-2-pyridin-4-yl-thieno[3,2-d]pyrimidin-4-yl]-propane-1,2-diamine] gave an IC50 [1] of less than 100 nM.

Molecule O=C(Nc1cc(-c2nc(N[C@@H]3CCNC3)c3sccc3n2)ccn1)c1ccco1 [compound 574, Furan-2-carboxylic acid {4-[4-((R)-pyrrolidin-3-ylamino)-thieno[3,2-d]pyrimidin-2-yl]-pyridin-2-yl}-amide] has an IC50 [1] of 1000 to 10000 nM.

N[C@H](CNc1nc(-c2ccncc2)nc2c(C(=O)NC3CC3)csc12)Cc1ccccc1 [compound 556, 4-((S)-2-Amino-3-phenyl-propylamino)-2-pyridin-4-yl-thieno[3,2-d]pyrimidine-7-carboxylic acid cyclopropylamide] was tested, and the IC50 [1] was 100 to 1000 nM.

In the case of N[C@H](CNc1nc(-c2ccncc2)nc2c(C#Cc3cc[nH]n3)csc12)Cc1ccccc1 [compound 549, (S)-3-Phenyl-N*1*-[7-(1H-pyrazol-3-ylethynyl)-2-pyridin-4-yl-thieno[3,2-d]pyrimidin-4-yl]-propane-1,2-diamine], the IC50 [1] is reported as less than 100 nM.

In the case of NC(CNc1nc(-c2ccncc2F)nc2c(-c3cccc(CO)c3)csc12)Cc1ccccc1 (stereo in doubt) [compound 425, {3-[4-((R)-2-Amino-3-phenyl-propylamino)-2-(3-fluoro-pyridin-4-yl)-thieno[3,2-d]pyrimidin-7-yl]-phenyl}-methanol], the IC50 [1] is reported as 1000 to 10000 nM.

In the case of N[C@H](CNc1nc(-c2ccncc2F)nc2c(-c3cc(C(F)(F)F)[nH]n3)csc12)Cc1ccccc1 [compound 421, (S)-N*1*-[2-(3-Fluoro-pyridin-4-yl)-7-(5-trifluoromethyl-2H-pyrazol-3-yl)-thieno[3,2-d]pyrimidin-4-yl]-3-phenyl-propane-1,2-diamine], the IC50 [1] is reported as 1000 to 10000 nM.

With Cc1noc(C)c1-c1csc2c(NC[C@@H](N)Cc3ccccc3)nc(-c3ccncc3)nc12 [compound 392, N*1*-[7-(3,5-Dimethyl-isoxazol-4-yl)-2-pyridin-4-yl-thieno[3,2-d]pyrimidin-4-yl]-3-phenyl-propane-1,2-diamine] the IC50 [1] was 1000 to 10000 nM.

COc1ccccc1C[C@H](N)CNc1nc(-c2ccncc2)nc2c(Br)c(C(C)(C)C)sc12 [compound 303, (S)—N*1*-(7-bromo-6-tert-butyl-2-pyridin-4-yl-thieno[3,2-d]pyrimidin-4-yl)-3-(2-methoxy-phenyl)-propane-1,2-diamine] gave an IC50 [1] of 10000 to 40000 nM.

c1cc(-c2nc(N[C@@H]3CCNC3)c3sccc3n2)cc(NC2CCCCC2)n1 [compound 623, [2-(2-Cyclohexylamino-pyridin-4-yl)-thieno[3,2-d]pyrimidin-4-yl]-(R)-pyrrolidin-3-yl-amine] showed an IC50 [1] of 10000 to 40000 nM.

N[C@H](CNc1nc(-c2ccncc2F)nc2c(Br)csc12)Cc1ccccc1 [compound 304, (S)—N*1*-[7-Bromo-2-(3-fluoro-pyridin-4-yl)-thieno[3,2-d]pyrimidin-4-yl]-3-phenyl-propane-1,2-diamine] was tested, and the IC50 [1] was less than 100 nM.

For COc1cccc(OC(C)C)c1-c1c(C)sc2c(NC[C@@H](N)Cc3ccccc3)nc(-c3ccncc3)nc12 [compound 440, (S)-N*1*-[7-(2-Isopropoxy-6-methoxy-phenyl)-6-methyl-2-pyridin-4-yl-thieno[3,2-d]pyrimidin-4-yl]-3-phenyl-propane-1,2-diamine], the IC50 [1] was 10000 to 40000 nM.

C[C@H](O)C#Cc1csc2c(N[C@@H]3CCNC3)nc(-c3ccncc3F)nc12 [compound 527, (S)-4-[2-(3-Fluoro-pyridin-4-yl)-4-((R)-pyrrolidin-3-ylamino)-thieno[3,2-d]pyrimidin-7-yl]-but-3-yn-2-ol] was tested, and the IC50 [1] was 10000 to 40000 nM.

Molecule Cc1ccccc1-c1csc2c(NC[C@@H](N)Cc3ccccc3)nc(-c3ccncc3F)nc12 [compound 433, (S)-N*1*-[2-(3-Fluoro-pyridin-4-yl)-7-o-tolyl-thieno[3,2-d]pyrimidin-4-yl]-3-phenyl-propane-1,2-diamine] has an IC50 [1] of 1000 to 10000 nM.

NCCNc1nc(-c2ccncc2)nc2c(Br)csc12 [compound 349, N*1*-(7-Bromo-2-pyridin-4-yl-thieno[3,2-d]pyrimidin-4-yl)-ethane-1,2-diamine] showed an IC50 [1] of 100 to 1000 nM.

N[C@H](CNc1nc(-c2ccncc2)nc2c(C#CCCF)csc12)Cc1ccccc1 [compound 546, (S)-N*1*-[7-(4-Fluoro-but-1-ynyl)-2-pyridin-4-yl-thieno[3,2-d]pyrimidine] was tested, and the IC50 [1] was 100 to 1000 nM.

Work on NC(CNc1nc(-c2ccncc2F)nc2c(-c3cncnc3)csc12)Cc1ccccc1 (stereo in doubt) [compound 422, (R)-N*1*-[2-(3-Fluoro-pyridin-4-yl)-7-pyrimidin-5-yl-thieno[3,2-d]pyrimidin-4-yl]-3-phenyl-propane-1,2-diamine] yielded an IC50 [1] of 1000 to 10000 nM.

Molecule Cc1ncccc1-c1c(C)sc2c(NC[C@@H](N)Cc3ccccc3)nc(-c3ccncc3)nc12 [compound 459, (S)-N*1*-[6-Methyl-7-(2-methyl-pyridin-3-yl)-2-pyridin-4-yl-thieno[3,2-d]pyrimidin-4-yl]-3-phenyl-propane-1,2-diamine] has an IC50 [1] of 10000 to 40000 nM.

In the case of c1ccc(CNc2cc(-c3nc(N[C@@H]4CCNC4)c4sccc4n3)ccn2)cc1 [compound 598, [2-(2-Benzylamino-pyridin-4-yl)-thieno[3,2-d]pyrimidin-4-yl]-(R)-pyrrolidin-3-yl-amine], the IC50 [1] is reported as 1000 to 10000 nM.

In the case of Cc1ccc(OC(C)C)c(-c2c(C)sc3c(NC[C@@H](N)Cc4ccccc4)nc(-c4ccncc4)nc23)c1 [compound 458, (S)-N*1*-[7-(2-Isopropoxy-5-methyl-phenyl)-6-methyl-2-pyridin-4-yl-thieno[3,2-d]pyrimidin-4-yl]-3-phenyl-propane-1,2-diamine], the IC50 [1] is reported as 10000 to 40000 nM.

Molecule C[C@H](O)CC#Cc1csc2c(NC[C@@H](N)Cc3ccccc3)nc(-c3ccncc3)nc12 [compound 540, (S)-5-[4-((S)-2-Amino-3-phenyl-propylamino)-2-pyridin-4-yl-thieno[3,2-d]pyrimidin-7-yl]-pent-4-yn-2-ol] has an IC50 [1] of 100 to 1000 nM.

Cc1ccccc1Nc1csc2c(N[C@@H]3CCNC3)nc(-c3ccncc3F)nc12 [compound 498, 2-(3-Fluoro-pyridin-4-yl)-N*4*-(R)-pyrrolidin-3-yl-N*7*-o-tolyl-thieno[3,2-d]pyrimidine-4,7-diamine] showed an IC50 [1] of 1000 to 10000 nM.

Molecule N[C@H](CNc1nc(-c2ccncc2)nc2c(-c3cccnc3)csc12)Cc1ccccc1 [compound 410, (S)-3-Phenyl-N*1*-(2-pyridin-4-yl-7-pyridin-3-yl-thieno[3,2-d]pyrimidin-4-yl)-propane-1,2-diamine] has an IC50 [1] of 1000 to 10000 nM.

Molecule N[C@H](CNc1nc(-c2ccncc2)nc2sc3c(c12)CCCC3)Cc1cccnc1 [compound 57, (S)-3-Pyridin-3-yl-N*1*-(2-pyridin-4-yl-5,6,7,8-tetrahydro-benzo[4,5]thieno[2,3-d]pyrimidin-4-yl)-propane-1,2-diamine] has an IC50 [2] of 100 to 1000 nM.
